From ChEMBL document CHEMBL1147287, “Antitumor agents, 107. New cytotoxic 4-alkylamino analogues of 4'-demethyl-epipodophyllotoxin as inhibitors of human DNA topoisomerase II” (1989)
Converted amounts (≈) assume the structure as drawn. The source made the active and inactive calls. The calls are words filed in the database; no cut-off is given here.

Experiments:
[1] = target: DNA topoisomerase 2-alpha (Homo sapiens) (UniProt P11388); test: Inhibition of human DNA topoisomerase 2 assessed as bacteriophage P4 DNA unknotting at 100 uM after 30 mins by agarose gel electrophoresis
[2] = target: DNA topoisomerase 2-alpha (Homo sapiens) (UniProt P11388); test: Inhibition of DNA topoisomerase 2 in human KB cells assessed as enzyme-[methyl-3H]thymidine-labeled DNA complex formation at 10 uM after 1 hr by K-SDS precipitation assay; format: cell-based
KB = test: Cytotoxicity against human KB cells assessed as reduction in cell number after 3 days by crystal violet staining; format: functional; settings: 72 h, read-out: ED50 (the source's name)
[3] = target: DNA topoisomerase 2-alpha (Homo sapiens) (UniProt P11388); test: Inhibition of DNA topoisomerase 2 in human KB cells assessed as enzyme-[methyl-3H]thymidine-labeled DNA complex formation at 5 uM after 1 hr by K-SDS precipitation assay; format: cell-based
[4] = target: DNA topoisomerase 2-alpha (Homo sapiens) (UniProt P11388); test: Inhibition of human DNA topoisomerase 2 assessed as bacteriophage P4 DNA unknotting after 30 mins by agarose gel electrophoresis
[5] = Inhibition of microtubule polymerization

Chain of DNA topoisomerase 2-alpha (Homo sapiens) (P11388 whole entry): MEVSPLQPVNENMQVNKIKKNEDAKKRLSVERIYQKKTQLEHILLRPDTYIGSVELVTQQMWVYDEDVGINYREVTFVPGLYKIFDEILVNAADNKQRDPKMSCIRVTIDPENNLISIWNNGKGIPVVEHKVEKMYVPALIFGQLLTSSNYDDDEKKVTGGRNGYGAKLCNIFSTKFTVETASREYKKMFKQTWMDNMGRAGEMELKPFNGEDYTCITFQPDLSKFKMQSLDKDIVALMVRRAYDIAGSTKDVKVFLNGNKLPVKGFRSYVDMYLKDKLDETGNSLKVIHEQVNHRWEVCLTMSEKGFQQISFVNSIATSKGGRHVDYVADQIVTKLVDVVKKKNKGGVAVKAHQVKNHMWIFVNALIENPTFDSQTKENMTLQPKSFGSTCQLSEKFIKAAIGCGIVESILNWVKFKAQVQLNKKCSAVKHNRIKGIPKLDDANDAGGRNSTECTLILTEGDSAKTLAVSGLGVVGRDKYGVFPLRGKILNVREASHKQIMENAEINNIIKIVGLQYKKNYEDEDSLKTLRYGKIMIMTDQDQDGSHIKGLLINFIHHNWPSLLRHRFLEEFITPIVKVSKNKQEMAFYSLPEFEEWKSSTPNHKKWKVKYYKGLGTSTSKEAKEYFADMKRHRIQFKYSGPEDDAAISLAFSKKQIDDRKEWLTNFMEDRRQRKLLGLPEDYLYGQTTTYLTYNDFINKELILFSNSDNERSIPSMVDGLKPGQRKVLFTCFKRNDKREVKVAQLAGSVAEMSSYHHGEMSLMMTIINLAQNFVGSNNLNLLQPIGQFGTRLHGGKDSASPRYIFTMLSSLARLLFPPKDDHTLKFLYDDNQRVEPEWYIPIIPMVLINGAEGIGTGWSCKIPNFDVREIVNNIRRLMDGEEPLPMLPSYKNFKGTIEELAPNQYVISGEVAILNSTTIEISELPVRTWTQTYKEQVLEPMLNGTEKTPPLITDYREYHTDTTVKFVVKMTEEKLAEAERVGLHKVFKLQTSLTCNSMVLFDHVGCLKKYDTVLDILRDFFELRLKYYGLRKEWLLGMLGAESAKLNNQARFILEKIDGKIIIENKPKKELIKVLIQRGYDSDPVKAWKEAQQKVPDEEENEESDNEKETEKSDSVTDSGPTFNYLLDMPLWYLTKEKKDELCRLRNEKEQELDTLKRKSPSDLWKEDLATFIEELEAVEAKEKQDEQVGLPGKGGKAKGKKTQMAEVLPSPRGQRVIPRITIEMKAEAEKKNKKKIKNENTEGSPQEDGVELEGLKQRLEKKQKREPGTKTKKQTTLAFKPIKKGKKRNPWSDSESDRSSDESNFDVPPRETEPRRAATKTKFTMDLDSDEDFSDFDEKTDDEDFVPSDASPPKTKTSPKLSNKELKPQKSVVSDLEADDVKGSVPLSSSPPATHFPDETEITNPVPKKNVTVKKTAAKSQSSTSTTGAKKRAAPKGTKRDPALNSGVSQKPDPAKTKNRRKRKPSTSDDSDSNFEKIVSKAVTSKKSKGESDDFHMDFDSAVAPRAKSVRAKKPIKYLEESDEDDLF

Structure (SMILES)	inhibition [1] [%]	inhibition [2] [%]	EC50 (KB) [µg/mL]	inhibition [3] [%]	ID50 [4] [µM]	Activity [5]
COc1cc([C@@H]2c3cc4c(cc3[C@@H](N)[C@H]3COC(=O)[C@H]23)OCO4)cc(OC)c1O	50	36.4	0.19 (≈ 0.476 µM)	–	–	–
COc1cc([C@@H]2c3cc4c(cc3[C@H](O)[C@H]3COC(=O)[C@H]23)OCO4)cc(OC)c1O	25	3.3	0.045 (≈ 0.112 µM)	–	–	–
COc1cc([C@@H]2c3cc4c(cc3[C@@H](O)[C@H]3COC(=O)[C@H]23)OCO4)cc(OC)c1O [4'-DEMETHYLEPIPODOPHYLLOTOXIN]	50	42.2	0.34 (≈ 0.849 µM)	–	–	–
COc1cc([C@@H]2c3cc4c(cc3[C@@H](NCC(C)O)[C@H]3COC(=O)[C@H]23)OCO4)cc(OC)c1O (stereo not given in full)	> 75	–	3.6 (≈ 7.87 µM)	83.9	25	–
COCCN[C@@H]1c2cc3c(cc2[C@@H](c2cc(OC)c(O)c(OC)c2)[C@H]2C(=O)OC[C@@H]21)OCO3	75	111	> 4	–	–	–
COc1cc([C@@H]2c3cc4c(cc3[C@H](NCCO)[C@H]3COC(=O)[C@H]23)OCO4)cc(OC)c1O	–	0	> 1	–	–	–
CCCN[C@@H]1c2cc3c(cc2[C@@H](c2cc(OC)c(O)c(OC)c2)[C@H]2C(=O)OC[C@@H]21)OCO3	50	69.7	< 0.4	–	–	–
COc1cc([C@@H]2c3cc4c(cc3[C@H](N)[C@H]3COC(=O)[C@H]23)OCO4)cc(OC)c1O	25	8	0.25 (≈ 0.626 µM)	–	–	–
COc1cc([C@@H]2c3cc4c(cc3[C@@H](NCCO)[C@H]3COC(=O)[C@H]23)OCO4)cc(OC)c1O	> 75	121	1.6 (≈ 3.61 µM)	70.1	50	–
COc1cc([C@@H]2c3cc4c(cc3[C@H](O)[C@H]3COC(=O)[C@H]23)OCO4)cc(OC)c1OC	–	–	–	–	–	inactive
COc1cc([C@@H]2c3cc4c(cc3[C@@H](NCCCO)[C@H]3COC(=O)[C@H]23)OCO4)cc(OC)c1O	50	89.2	4 (≈ 8.74 µM)	–	–	–
COc1cc([C@@H]2c3cc4c(cc3[C@@H](NC(C)CO)[C@H]3COC(=O)[C@H]23)OCO4)cc(OC)c1O (stereo not given in full)	> 75	–	2.3 (≈ 5.03 µM)	89.3	25	–
COc1cc([C@@H]2c3cc4c(cc3[C@@H](O[C@@H]3O[C@@H]5CO[C@@H](C)O[C@H]5[C@H](O)[C@H]3O)[C@H]3COC(=O)[C@H]23)OCO4)cc(OC)c1O [ETOPOSIDE]	> 75	100	0.16 (≈ 0.272 µM)	56.2	50	–
C=CCN[C@@H]1c2cc3c(cc2[C@@H](c2cc(OC)c(O)c(OC)c2)[C@H]2C(=O)OC[C@@H]21)OCO3	75	84.2	3.4 (≈ 7.74 µM)	–	–	–
